From PubChem BioAssay (NCI)
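A five-concentration, 48-hour dose response in 96-well plates underlies each endpoint, interpolated linearly between surrounding concentrations. TGI marks complete inhibition of growth.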

Columns and labels:
Assay in all cases: DTP human tumour cell line panel, 48 h
786-0 renal = tested on: 786-0 renal
A549 NSCLC = tested on: A549 NSCLC
ACHN renal = tested on: ACHN renal
BT-549 breast = tested on: BT-549 breast
CAKI-1 renal = tested on: CAKI-1 renal
CCRF-CEM leukemia = tested on: CCRF-CEM leukemia
COLO 205 colon = tested on: COLO 205 colon
DU-145 prostate = tested on: DU-145 prostate
EKVX NSCLC = tested on: EKVX NSCLC
HCC-2998 colon = tested on: HCC-2998 colon
HCT-116 colon = tested on: HCT-116 colon
HCT-15 colon = tested on: HCT-15 colon
HL-60(TB) leukemia = tested on: HL-60(TB) leukemia
HOP-62 NSCLC = tested on: HOP-62 NSCLC
HS 578T breast = tested on: HS 578T breast
HT29 colon = tested on: HT29 colon
IGROV1 ovarian = tested on: IGROV1 ovarian
K-562 leukemia = tested on: K-562 leukemia
KM12 colon = tested on: KM12 colon
M14 melanoma = tested on: M14 melanoma
MCF7 breast = tested on: MCF7 breast
MDA-MB-231 breast = tested on: MDA-MB-231 breast
MDA-MB-435 = tested on: MDA-MB-435
MDA-N = tested on: MDA-N
MOLT-4 leukemia = tested on: MOLT-4 leukemia
NCI-H226 lung = tested on: NCI-H226 lung
NCI-H23 lung = tested on: NCI-H23 lung
NCI-H460 lung = tested on: NCI-H460 lung
NCI-H522 lung = tested on: NCI-H522 lung
NCI/ADR-RES ovarian = tested on: NCI/ADR-RES ovarian
OVCAR-4 ovarian = tested on: OVCAR-4 ovarian
OVCAR-8 ovarian = tested on: OVCAR-8 ovarian
PC-3 prostate = tested on: PC-3 prostate
RPMI-8226 leukemia = tested on: RPMI-8226 leukemia
RXF 393 renal = tested on: RXF 393 renal
SF-268 CNS = tested on: SF-268 CNS
SF-539 CNS = tested on: SF-539 CNS
SK-MEL-28 melanoma = tested on: SK-MEL-28 melanoma
SK-MEL-5 melanoma = tested on: SK-MEL-5 melanoma
SK-OV-3 ovarian = tested on: SK-OV-3 ovarian
SN12C renal = tested on: SN12C renal
SNB-19 CNS = tested on: SNB-19 CNS
SNB-75 CNS = tested on: SNB-75 CNS
SR leukemia = tested on: SR leukemia
SW-620 colon = tested on: SW-620 colon
T-47D breast = tested on: T-47D breast
TK-10 renal = tested on: TK-10 renal
U251 CNS = tested on: U251 CNS
UACC-257 melanoma = tested on: UACC-257 melanoma
UACC-62 melanoma = tested on: UACC-62 melanoma
UO-31 renal = tested on: UO-31 renal
A498 renal = tested on: A498 renal
HOP-92 NSCLC = tested on: HOP-92 NSCLC
LOX IMVI melanoma = tested on: LOX IMVI melanoma
MALME-3M melanoma = tested on: MALME-3M melanoma
OVCAR-3 ovarian = tested on: OVCAR-3 ovarian
OVCAR-5 ovarian = tested on: OVCAR-5 ovarian
SF-295 CNS = tested on: SF-295 CNS
SK-MEL-2 melanoma = tested on: SK-MEL-2 melanoma

Measured: TGI

COc1ccc(N2C(=O)CC(C3CC(C(C)(C)C)CCC3=O)C2=O)cc1 (stereo not drawn)
32.9 µM: NCI-H522 lung
not listed: A498 renal | HOP-92 NSCLC | LOX IMVI melanoma | MALME-3M melanoma | OVCAR-3 ovarian | OVCAR-5 ovarian | SF-295 CNS | SK-MEL-2 melanoma
> 100 µM: all other assays above

C1C2CC3CC1CC(Nc1nc(NC45CC6CC(CC(C6)C4)C5)nc(NC45CC6CC(CC(C6)C4)C5)n1)(C2)C3
> 79.2 µM: SNB-75 CNS
> 52.1 µM: LOX IMVI melanoma
> 77.5 µM: EKVX NSCLC
> 42.8 µM: SK-MEL-5 melanoma
> 44.1 µM: 786-0 renal
> 65.5 µM: OVCAR-8 ovarian
> 93.2 µM: SK-MEL-28 melanoma
> 51.5 µM: KM12 colon
> 94.9 µM: COLO 205 colon
not listed: IGROV1 ovarian | NCI-H522 lung
> 100 µM: all other assays above
